“And” between values parts separate entries of the source, which are not always exact repeats. Equal values may be shown once.
System: Sprague-Dawley rats
Assay: Retinoid analyses in liver, serum and kidney
Format: in vivo, Rattus norvegicus
Conditions: males
Protocol: Retinoids in liver, serum, and kidney were analyzed according to Schmidt et al.. The polar retinoids 9-cis-retinoic acid (9-cis-RA), 13-cis-retinoic acid (13-cis-RA), 13-cis-4-oxo-retinoic acid (13-cis-4-o-RA), 9-cis-4-oxo-13,14-dihydro-retinoic acid (9-cis-4-o-13,14-dh-RA), all-trans retinoic acid (all-trans RA) and the apolar retinoids retinol and retinyl palmitate were extracted by a single liquid-extraction, separated from each other via solid-phase extraction using an aminopropyl phase, and then injected onto two different HPLC systems that were coupled with UV detection. […] The limits of detection (LOD) for all-trans RA and 9c-4o-13,14-dh-RA were 0.7 and 1.0 pmol/g tissue, and 0.3 and 0.6 pmol/ml serum, respectively. Retinol and retinyl palmitate were separated on a J'sphere ODS-H80 (4.6×150 mm, 4 µm particle size) obtained from YMC (Schermbeck, Germany), and were detected at 325 nm. The LOD for retinol and retinyl palmitate were 5.6 and 5.5 pmol/g tissue, and 4.2 and 4.2 pmol/ml serum, respectively.
Data were also analyzed using the BMD method, which is based on dose-response modeling of the full data set using a nested family of exponential and Hill models. The analyses were done on data of males and females combined, using sex as a covariate. […] In that case, different Critical Effect Doses (CEDs) and CEDs at the lowest bound of the confidence interval (CED-L) were generated for each sex. If no difference between sexes is detected, a CED and CED-Ls for the combined data is generated. However, this was also done if the curve fits are close, and separate analyses for males and females were then performed manually. CEDs and CED-Ls were calculated at the predefined Critical Effect Size (CES) of 5% (EFSA standard) or 10%.

[1] = total dose 100 mg/kg bw, group mean, N=5
[2] = total dose 300 mg/kg bw, group mean, N=5
[3] = total dose 1000 mg/kg bw, group mean, N=5
[4] = total dose 1700 mg/kg bw, group mean, N=5
[5] = adipose tissue concentration based
[6] = controls vs high dose, fitted model

Clc1cc(Cl)c(-c2cc(Cl)c(Cl)c(Cl)c2Cl)cc1Cl [PCB 180, 2,2′,3′,4,4′,5,5′-heptachlorobiphenyl] was tested, and the “Liver Retinyl esters” value (total dose 100 mg/kg bw, Liver) was 84.5 pmol/mL, the “Liver Retinol” value (total dose 100 mg/kg bw, Liver, n=4) was 1.75 pmol/mL and the “Kidney All-trans RA” value [1] was 37.0 pmol. The “Kidney Retinol” value [1] was 17.3 nmol, the “Kidney Retinyl esters” value [1] was 8.84 nmol and the “Liver All-trans RA” value [1] was 744 pmol. For the same compound, the “Liver Retinol” value [1] was 0.26 µmol, the “Liver Retinyl esters” value [1] was 10.3 µmol and the “Liver 9-cis-4o-13,14-dh-RA” value (total dose 100 mg/kg bw, n=3) was 22.7 pmol/g. The “Serum Retinol” value (total dose 100 mg/kg bw, n=4) was 1.75 pmol/mL, the “Kidney All-trans RA” value (total dose 300 mg/kg bw) was 35.9 pmol/g and the “Kidney Retinol” value (total dose 300 mg/kg bw) was 17.5 nmol/g. The “Kidney Retinyl esters” value (total dose 300 mg/kg bw) was 13.9 nmol/g, the “Liver All-trans RA” value (total dose 300 mg/kg bw) was 48.1 pmol/g and the “Liver Retinol” value (total dose 300 mg/kg bw) was 17.4 nmol/g. For the same compound, the “Liver Retinyl esters” value (total dose 300 mg/kg bw) was 0.56 µmol/g, the “Serum Retinol” value (total dose 300 mg/kg bw) was 1.64 pmol/mL and the “Serum Retinyl esters” value (total dose 300 mg/kg bw) was 67.8 pmol/mL. For the same compound, the “Liver Retinol” value (total dose 300 mg/kg bw, Liver) was 1.64 pmol/mL, the “Liver Retinyl esters” value (total dose 300 mg/kg bw, Liver) was 67.8 pmol/mL and the “Kidney All-trans RA” value [2] was 37.8 pmol. For the same compound, the “Kidney Retinol” value [2] was 18.2 nmol, the “Kidney Retinyl esters” value [2] was 14.5 nmol and the “Liver All-trans RA” value [2] was 863 pmol. For the same compound, the “Liver Retinol” value [2] was 0.31 µmol, the “Liver Retinyl esters” value [2] was 10.1 µmol and the “Liver 9-cis-4o-13,14-dh-RA” value (total dose 300 mg/kg bw, n=4) was 20.9 pmol/g. For the same compound, the “Kidney All-trans RA” value [3] was 35.9 pmol, the “Kidney Retinol” value [3] was 24.5 nmol and the “Kidney Retinyl esters” value [3] was 24.5 nmol. The “Liver 9-cis-4o-13,14-dh RA” value [3] was 455 pmol, the “Liver All-trans RA” value [3] was 1077 pmol and the “Liver Retinol” value [3] was 0.27 µmol. For the same compound, the “Liver Retinyl esters” value [3] was 8.2 µmol, the “Kidney All-trans RA” value [4] was 32.4 pmol and the “Kidney Retinol” value [4] was 23.3 nmol. The “Kidney Retinyl esters” value [4] was 25.2 nmol, the “Liver All-trans RA” value [4] was 1178 pmol and the “Liver Retinol” value [4] was 0.23 µmol. The “Liver Retinyl esters” value [4] was 6.4 µmol, the “Kidney retinol amount, CED” value (CES 5%, total dose based) was 206 mg/kg bw and the “Kidney retinol amount, CED-L” value (CES 5%, total dose based) was 147 mg/kg bw. For the same compound, the “Kidney retinol concentration, CED” value (CES 5%, total dose based) was 200 mg/kg bw, the “Kidney retinol concentration, CED-L” value (CES 5%, total dose based) was 149 mg/kg bw and the “Kidney retinyl esters amount, CED” value (CES 5%, total dose based) was 9.14 mg/kg bw. For the same compound, the “Kidney retinyl esters amount, CED-L” value (CES 5%, total dose based) was 3.10 mg/kg bw, the “Kidney retinyl esters concentration, CED” value (CES 5%, total dose based) was 9.9 mg/kg bw and 9.88 mg/kg bw and the “Kidney retinyl esters concentration, CED-L” value (CES 5%, total dose based) was 3.35 mg/kg bw. The “Liver all-trans RA amount, CED” value (CES 5%, total dose based) was 21.7 mg/kg bw, the “Liver all-trans RA amount, CED-L” value (CES 5%, total dose based) was 9.07 mg/kg bw and the “Liver all-trans RA concentration, CED” value (CES 5%, total dose based) was 450 mg/kg bw. The “Liver all-trans RA concentration, CED-L” value (CES 5%, total dose based) was 268 mg/kg bw, the “Liver retinol amount, CED” value (CES 5%, total dose based) was 437 mg/kg bw and the “Liver retinol amount, CED-L” value (CES 5%, total dose based) was 261 mg/kg bw. The “Liver retinol concentration, CED” value (CES 5%, total dose based) was 32 mg/kg bw and 31.9 mg/kg bw, the “Liver retinol concentration, CED-L” value (CES 5%, total dose based) was 6.10 mg/kg bw and the “Liver retinyl esters amount, CED” value (CES 5%, total dose based) was 145 mg/kg bw. The “Liver retinyl esters amount, CED-L” value (CES 5%, total dose based) was 123 mg/kg bw, the “Liver retinyl esters concentration, CED” value (CES 5%, total dose based) was 22 mg/kg bw and 21.5 mg/kg bw and the “Liver retinyl esters concentration, CED-L” value (CES 5%, total dose based) was 12.9 mg/kg bw. For the same compound, the “Kidney retinol amount, CED” value (CES 10%, total dose based) was 402 mg/kg bw, the “Kidney retinol amount, CED-L” value (CES 10%, total dose based) was 288 mg/kg bw and the “Kidney retinol concentration, CED” value (CES 10%, total dose based) was 390 mg/kg bw. The “Kidney retinol concentration, CED-L” value (CES 10%, total dose based) was 291 mg/kg bw, the “Kidney retinyl esters amount, CED” value (CES 10%, total dose based) was 18.5 mg/kg bw and the “Kidney retinyl esters amount, CED-L” value (CES 10%, total dose based) was 6.26 mg/kg bw. For the same compound, the “Kidney retinyl esters concentration, CED” value (CES 10%, total dose based) was 20 mg/kg bw, the “Kidney retinyl esters concentration, CED-L” value (CES 10%, total dose based) was 6.77 mg/kg bw and the “Liver all-trans RA amount, CED” value (CES 10%, total dose based) was 44.7 mg/kg bw. For the same compound, the “Liver all-trans RA amount, CED-L” value (CES 10%, total dose based) was 18.7 mg/kg bw, the “Liver all-trans RA concentration, CED” value (CES 10%, total dose based) was 879 mg/kg bw and the “Liver all-trans RA concentration, CED-L” value (CES 10%, total dose based) was 523 mg/kg bw. The “Liver retinol amount, CED” value (CES 10%, total dose based) was 897 mg/kg bw, the “Liver retinol amount, CED-L” value (CES 10%, total dose based) was 536 mg/kg bw and the “Liver retinol concentration, CED” value (CES 10%, total dose based) was 56 mg/kg bw. The “Liver retinol concentration, CED-L” value (CES 10%, total dose based) was 10.4 mg/kg bw, the “Liver retinyl esters amount, CED” value (CES 10%, total dose based) was 296 mg/kg bw and the “Liver retinyl esters amount, CED-L” value (CES 10%, total dose based) was 252 mg/kg bw. For the same compound, the “Liver retinyl esters concentration, CED” value (CES 10%, total dose based) was 43.9 mg/kg bw, the “Liver retinyl esters concentration, CED-L” value (CES 10%, total dose based) was 26.6 mg/kg bw and the “Kidney retinol concentration, CED” value [5] was 863 µg/g lipid. For the same compound, the “Kidney retinyl ester concentration, CED” value [5] was 42 µg/g lipid, the “Liver all-trans RA concentration, CED” value [5] was 1920 µg/g lipid and the “Liver retinol concentration, CED” value [5] was 31 µg/g lipid. The “Liver retinol, CED-L” value [5] was 18800 ng/g lipid, the “Liver retinyl ester concentration, CED” value [5] was 108 µg/g lipid and the “Kidney retinol concentration, Maximum response” value [6] was 51.5%. The “Liver all-trans RA concentration, Maximum response” value [6] was 20% and 20.3%, the “Liver 9-cis-4o-13,14-dh RA” value (total dose 10 mg/kg bw, group mean, n=3) was 163 pmol and the “Liver 9-cis-4o-13,14-dh RA” value (total dose 30 mg/kg bw, n=1) was 389b pmol. For the same compound, the “Liver 9-cis-4o-13,14-dh-RA” value (total dose 30 mg/kg bw, n=1) was 30.8 pmol·days/g, the “Liver 9-cis-4o-13,14-dh RA” value (total dose 100 mg/kg bw, group mean, n=3) was 434 pmol and the “Liver 9-cis-4o-13,14-dh RA” value (total dose 300 mg/kg bw, group mean, n=4) was 403 pmol. The “Liver 9-cis-4o-13,14-dh RA” value (total dose 1700 mg/kg bw, group mean, n=4, one exceptionally high value excluded as an outlier) was 454 pmol.
